These results are taken from patent US7479561B2, “4-(2,4-dichloro-5-methoxyphenyl)amino-6-methoxy-7-{[5-substituted-amino)methyl]-3-furyl}-3-quinolinecarbonitriles as kinase inhibitors” (Wyeth, priority 2004, dated 2009).

Series [1] addresses T1, Rat2 fibroblasts stably transformed with v-Src/Hu Lck fusion gene (Homo sapiens, UniProt P06239, cells depend on it, form not given).
T1 construct: fused on or other part: v-Src of Rous sarcoma virus outside the catalytic domain (N-terminal unique/SH3/SH2 region and C-terminal tail); candidates are Schmidt-Ruppin A (P00524) and Prague C (P00526)
As to the kind of experiment: Anchorage Independent Lck-transformed Fibroblast Proliferation Assay. It counts as cell-based, rat. The following applies: suspension growth, MTS on Day 5; multiple entries = tested multiple times; read-out: Lck cells IC50. The source says:
Rat2 fibroblasts stably transformed with a plasmid containing a CMV promotor controlled v-Src/Hu Lck fusion gene in which the catalytic domain of human Lck was inserted in place of the v-Src catalytic domain in the v-Src gene are used for the measurement of src dependent suspension growth.

For series [2], the target named is Rat2 fibroblasts stably transformed with v-Src/Hu c-Src fusion gene (Homo sapiens, UniProt P12931, cells depend on it, form not given). As to the kind of experiment: Anchorage Independent Src-transformed Fibroblast Proliferation Assay. It counts as cell-based, rat. The source says:
Rat2 fibroblasts stably transformed with a plasmid containing a CMV promotor controlled v-Src/Hu c-Src fusion gene in which the catalytic domain of human c-Src was inserted in place of the v-Src catalytic domain in the v-Src gene are used for the measurement of src dependent suspension growth.

Series [3] has as its target T2, Recombinant human Src enzyme (Homo sapiens, UniProt P12931).
T2 construct: purchased PanVera P3044
In words: Src Kinase Assay (LANCE FRET). The format is biochemical. The protocol:
Recombinant human Src enzyme was obtained from PanVera (P3044). […] Homogeneous fluorescence resonance energy transfer kinase assays were performed using the europium/APC detection format (LANCE, Perkin Elmer). Src enzyme (10 ng) was mixed with biotinylated peptide (final concentration 2 μM), 50 mM Hepes (pH 7.5), 10 mM MgCl2, 20 ug/ml BSA, 0.001% Brij-35 (Sigma), 100 μM ATP, 1% DMSO. The kinase reaction was incubated for 70 min at 37° C. The reaction was stopped with EDTA at a final concentration of 30 mM EDTA/25 mM Hepes (pH 7.5)/10 μg/ml BSA. The mixture was combined with Eu-labeled anti-phosphotyrosine antibody PT66 (Perkin Elmer, AD0068) and Streptavidin Surelight-APC (Perkin Elmer, CR130-100) in 50 mM Hepes (pH 7.5)/20 μg/ml BSA, and incubated for 30 min according to manufacturer's specifications. […] Multiple entries for a given compound indicate that it was tested multiple times.
For orientation: TR-FRET usually uses a lanthanide donor and a delayed reading to cut background.

For series [4], the system named is KU812 Cells. As to the kind of experiment: KU812 cell assay. It counts as cell-based. The following applies: Homo sapiens. How it is done:
(§1) The cell assays were performed as noted in Cancer Research 63, 375-381 (2003).

For series [5], the system named is HT29 cells. As to the kind of experiment: HT29 Xenograft Assay. Conditions: 100 mg/kg oral gavage once a day for 14 days; at day 14; female nude mice. It counts as in vivo. The protocol:
All animal studies were conducted under an approved Institutional Animal Care and Use Committee protocol. HT29 cells were suspended to 50 million cells/ml and 0.2 ml of the cell suspension was injected into 6-7 weeks old female nude mice (Charles River, Wilmington, Mass.). […] At day 14 the T/C (growth of tumors in treated animals/growth of tumors in control animals) was 0.53.

Series [6] concerns the target T3, Wild type c-Abl (Homo sapiens, UniProt P00519).
T3 construct: purchased Panvera P3049
As to the kind of experiment: Abl Kinase Assay (LANCE FRET). The format is biochemical. Conditions: 100 μM ATP; read-out: c-Abl enzyme IC50. How it is done:
Wild type c-Abl was purchased from Panvera (P3049). Biotinylated peptide for the Abl kinase assay was obtained from Synpep (Biotin-NH-[…]-COOH). Homogeneous fluorescence resonance energy transfer kinase assays were performed using the europium/APC detection format (LANCE, Perkin Elmer). Abl enzyme (2.5 ng c-Abl) was mixed with biotinylated peptide (final concentration 2 μM), 50 mM Hepes (pH 7.5), 10 mM MgCl2, 20 ug/ml BSA, and 0.001% Brij-35 (Sigma). Compound was added with a final DMSO concentration of 1%, and incubated for ten minutes at 27° C. The kinase reaction was initiated by addition of ATP to a final concentration of 100 μM, and incubated for 30 minutes at 27° C. The reaction was stopped with EDTA at a final concentration of 30 mM EDTA/25 mM Hepes (pH 7.5)/10 μg/ml BSA. The mixture was combined with Eu-labeled phosphotyrosine antibody PT66 (Perkin Elmer, AD0068) and Streptavidin Surelight-APC (Perkin Elmer, CR130-100) in 50 mM Hepes (pH 7.5)/20 μg/ml BSA, and incubated for 30 minutes according to manufacturer's specifications. The reaction was monitored on a Wallac Victor with excitation at 340 nm and emission at 665 nm. Data was analyzed with the LSW data analysis plug-in for Excel (Microsoft).

Series [7] deals with K562 Cells. As to the kind of experiment: K562 cell assay. It counts as cell-based. The following applies: Homo sapiens. The protocol:
as §1

The mark [8] stands for this setting: suspension growth, MTS on Day 5, multiple entries = tested multiple times, read-out: Src cells IC50.
Setting [9] is: 100 μM ATP, multiple entries = tested multiple times, read-out: Src enzyme IC50.
Where [10] appears, read: single value, read-out: Src Cell IC50.
The mark [11] stands for this setting: single value, read-out: Src Enzyme IC50.

pIC50: −log10 of the molar value. Where “and” joins values, the source holds several entries; their conditions need not be identical. Identical values can stand only once. Like-named read-outs stand apart in the source and are kept apart here.

T1 sequence (P06239 whole entry, change not shown, the tested form may be a part): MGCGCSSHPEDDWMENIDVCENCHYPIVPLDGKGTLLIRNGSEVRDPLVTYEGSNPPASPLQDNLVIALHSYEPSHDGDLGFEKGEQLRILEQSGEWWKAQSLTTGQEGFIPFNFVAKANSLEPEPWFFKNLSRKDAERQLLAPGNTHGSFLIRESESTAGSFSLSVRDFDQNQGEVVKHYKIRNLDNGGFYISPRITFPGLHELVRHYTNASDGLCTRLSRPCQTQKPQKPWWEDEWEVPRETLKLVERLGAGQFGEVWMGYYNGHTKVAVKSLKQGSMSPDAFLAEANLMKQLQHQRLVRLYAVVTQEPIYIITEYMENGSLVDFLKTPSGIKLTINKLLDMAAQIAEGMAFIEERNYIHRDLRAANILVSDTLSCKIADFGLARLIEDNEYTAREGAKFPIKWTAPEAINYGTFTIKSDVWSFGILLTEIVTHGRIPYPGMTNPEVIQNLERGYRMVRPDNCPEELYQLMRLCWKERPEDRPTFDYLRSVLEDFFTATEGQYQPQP
Chain of Rat2 fibroblasts stably transformed with v-Src/Hu c-Src fusion gene (P12931 whole entry, stated change not applied, the tested form may be a part): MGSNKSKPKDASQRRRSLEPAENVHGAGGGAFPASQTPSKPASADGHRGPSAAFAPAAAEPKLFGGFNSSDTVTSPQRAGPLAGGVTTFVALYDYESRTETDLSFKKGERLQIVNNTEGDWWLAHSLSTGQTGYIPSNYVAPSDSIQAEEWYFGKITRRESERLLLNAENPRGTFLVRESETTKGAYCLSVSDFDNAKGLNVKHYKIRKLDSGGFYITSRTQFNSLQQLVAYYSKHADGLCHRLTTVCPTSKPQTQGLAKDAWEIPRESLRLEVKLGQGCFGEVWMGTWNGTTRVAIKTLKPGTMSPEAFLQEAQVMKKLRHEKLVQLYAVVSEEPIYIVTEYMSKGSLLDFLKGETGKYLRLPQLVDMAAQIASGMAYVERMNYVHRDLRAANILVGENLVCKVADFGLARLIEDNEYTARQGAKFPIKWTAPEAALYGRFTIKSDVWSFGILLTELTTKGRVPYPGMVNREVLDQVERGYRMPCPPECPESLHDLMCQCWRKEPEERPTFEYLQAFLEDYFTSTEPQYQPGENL
T2 sequence (P12931 whole entry): as the sequence (P12931 whole entry, stated change not applied, the tested form may be a part) above
T3 sequence (P00519 whole entry): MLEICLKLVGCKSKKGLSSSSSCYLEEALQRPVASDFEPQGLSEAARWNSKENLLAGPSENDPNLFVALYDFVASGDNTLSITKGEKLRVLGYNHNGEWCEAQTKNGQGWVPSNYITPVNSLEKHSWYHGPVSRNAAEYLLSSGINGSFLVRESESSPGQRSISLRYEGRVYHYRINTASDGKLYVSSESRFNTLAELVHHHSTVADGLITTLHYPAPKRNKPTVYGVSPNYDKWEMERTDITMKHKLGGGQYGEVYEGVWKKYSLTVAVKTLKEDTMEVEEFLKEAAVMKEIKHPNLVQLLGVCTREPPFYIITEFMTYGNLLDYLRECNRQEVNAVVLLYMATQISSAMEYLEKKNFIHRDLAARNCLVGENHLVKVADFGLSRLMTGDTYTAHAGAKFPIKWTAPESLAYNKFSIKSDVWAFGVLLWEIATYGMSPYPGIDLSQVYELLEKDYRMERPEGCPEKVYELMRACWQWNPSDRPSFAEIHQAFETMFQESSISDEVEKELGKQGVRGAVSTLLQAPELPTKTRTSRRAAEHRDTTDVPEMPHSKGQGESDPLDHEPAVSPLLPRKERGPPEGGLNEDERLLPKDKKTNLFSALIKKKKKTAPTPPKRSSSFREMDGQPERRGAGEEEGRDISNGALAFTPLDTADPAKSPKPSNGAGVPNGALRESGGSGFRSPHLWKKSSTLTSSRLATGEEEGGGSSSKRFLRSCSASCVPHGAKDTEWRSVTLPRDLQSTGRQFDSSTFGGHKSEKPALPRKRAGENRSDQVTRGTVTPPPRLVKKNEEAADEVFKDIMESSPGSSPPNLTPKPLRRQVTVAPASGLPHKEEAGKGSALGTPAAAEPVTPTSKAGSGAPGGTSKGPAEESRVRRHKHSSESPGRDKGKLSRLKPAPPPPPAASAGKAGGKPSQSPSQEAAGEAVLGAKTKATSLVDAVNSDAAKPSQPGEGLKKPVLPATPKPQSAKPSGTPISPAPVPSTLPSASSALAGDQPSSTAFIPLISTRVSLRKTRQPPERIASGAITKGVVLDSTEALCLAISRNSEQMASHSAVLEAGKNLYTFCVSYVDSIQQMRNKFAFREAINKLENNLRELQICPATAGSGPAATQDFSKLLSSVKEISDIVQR

On to `COc1cc(Nc2c(C#N)cnc3cc(-c4coc(CN(C)C)c4)c(OC)cc23)c(Cl)cc1Cl` [Example 2, 4-[(2,4-Dichloro-5-methoxyphenyl)amino]-6-methoxy-7-{5-[(dimethylamino)methyl]-3-furyl}-3-quinolinecarbonitrile], for which the melting point lay within 133 to 138 °C. The GI50 in series [1] worked out at 11 nM.

`COc1cc(Nc2c(C#N)cnc3cc(-c4coc(CN5CCN(c6ccccc6)CC5)c4)c(OC)cc23)c(Cl)cc1Cl` [Example 4, 4-[(2,4-Dichloro-5-methoxyphenyl)amino]-6-methoxy-7-{5-[(4-phenylpiperazin-1-yl)methyl]-3-furyl}-3-quinolinecarbonitrile] yielded a melting point of 201 to 203 °C. For the same compound, in series [1], the GI50 is 353 nM and 447 nM.

With `COc1ccc(N2CCN(Cc3cc(-c4cc5ncc(C#N)c(Nc6cc(OC)c(Cl)cc6Cl)c5cc4OC)co3)CC2)c(OC)c1` [Example 5, 4-[(2,4-Dichloro-5-methoxyphenyl)amino]-6-methoxy-7-(5-{[4-(2,4-dimethoxyphenyl)piperazin-1-yl]methyl}-3-furyl)-3-quinolinecarbonitrile], the melting point is 223 to 225 °C. For the same compound, in series [2] (setting [8]), the GI50 is 19 nM and 17 nM. Also, in series [3] (setting [9]), the pIC50 was 8.46 and 8.51. Moreover, the GI50 in series [1] is 246 nM and 203 nM and 239 nM.

As to `COc1cc(Nc2c(C#N)cnc3cc(-c4coc(CN5CCN(C)CC5)c4)c(OC)cc23)c(Cl)cc1Cl` [Example 1], the melting point was in the range of 179 to 181 °C. For the same compound, the GI50 in series [2] (setting [10]) stood at 15 nM. In addition, the GI50 in series [2] (setting [8]) was determined as 16 nM. Besides, the negative-log IC50 (pIC50) in series [4] is 8.22. In addition, the “T/C (growth of tumors in treated animals/growth of tumors in control animals)” value in series [5] amounted to 0.53. Besides, the pIC50 in series [3] (setting [9]) was 9.00 and 9.22 and 9.15. The pIC50 in series [3] (setting [11]) was 9.10. Besides, the negative-log IC50 (pIC50) in series [6] was 9.40 and 9.57 and 9.60. Besides, in series [7], the pIC50 is 8.25.

With `c1ccsc1` [thiophene, reference compound], the GI50 in series [2] (setting [10]) was determined as 94 nM. Moreover, in series [3] (setting [11]), the pIC50 was 8.43.

Regarding `COc1cc(Nc2c(C#N)cnc3cc(-c4coc(CN5CCOCC5)c4)c(OC)cc23)c(Cl)cc1Cl` [Example 3, 4-[(2,4-Dichloro-5-methoxyphenyl)amino]-6-methoxy-7-[5-(morpholin-4-ylmethyl)-3-furyl]-3-quinolinecarbonitrile], the melting point fell in the range of 164 to 166 °C.

As to `CCN(CC)Cc1cc(-c2cc3ncc(C#N)c(Nc4cc(OC)c(Cl)cc4Cl)c3cc2OC)co1` [Example 8, 4-[(2,4-dichloro-5-methoxyphenyl)amino]-7-{5-[(diethylamino)methyl]-3-furyl}-6-methoxyquinoline-3-carbonitrile], the negative logarithm of the IC50 (pIC50) in series [3] (setting [9]) is 9.05 and 9.10.

With `COc1cc(Nc2c(C#N)cnc3cc(-c4coc(CN5CCN(c6ccc(C)cc6)CC5)c4)c(OC)cc23)c(Cl)cc1Cl` [Example 22, 4-[(2,4-dichloro-5-methoxyphenyl)amino]-6-methoxy-7-(5-{[4-(4-methylphenyl)piperazin-1-yl]methyl}-3-furyl)quinoline-3-carbonitrile], the negative logarithm of the IC50 (pIC50) in series [3] (setting [9]) is 7.89 and 7.84.

As to `CCN1CCN(Cc2cc(-c3cc4ncc(C#N)c(Nc5cc(OC)c(Cl)cc5Cl)c4cc3OC)co2)CC1` [Example 9, 4-[(2,4-dichloro-5-methoxyphenyl)amino]-7-{5-[(4-ethylpiperazin-1-yl)methyl]-3-furyl}-6-methoxyquinoline-3-carbonitrile], the negative-log IC50 (pIC50) in series [3] (setting [9]) is 9.22 and 9.15.

As for `COc1cc(Nc2c(C#N)cnc3cc(-c4coc(CN5CCN(c6ccc(O)cc6)CC5)c4)c(OC)cc23)c(Cl)cc1Cl` [Example 24, 4-[(2,4-dichloro-5-methoxyphenyl)amino]-7-(5-{[4-(4-hydroxyphenyl)piperazin-1-yl]methyl}-3-furyl)-6-methoxyquinoline-3-carbonitrile], the pIC50 in series [3] (setting [9]) is 8.22 and 8.25.

The term melting point denotes the temperature of the solid-liquid transition. Usually pIC50 stands for −log10 of the IC50, conventionally taken in molar units.
